Legend:
[1] = target: T1, human leukocyte elastase (HLE) (Homo sapiens, UniProt P08246); test: chromogenic assay, […] nm; assay type: biochemical; conditions: 100 μM MeO-Suc-Ala-Ala-Pro-Val-pNA, sodium phosphate pH 7.8, 500 mM NaCl, 25 °C, 1.5% DMSO; read-out: 6
T1 construct: gene ELANE; enzyme stock in sodium acetate buffer
T1 sequence (P08246 30-247): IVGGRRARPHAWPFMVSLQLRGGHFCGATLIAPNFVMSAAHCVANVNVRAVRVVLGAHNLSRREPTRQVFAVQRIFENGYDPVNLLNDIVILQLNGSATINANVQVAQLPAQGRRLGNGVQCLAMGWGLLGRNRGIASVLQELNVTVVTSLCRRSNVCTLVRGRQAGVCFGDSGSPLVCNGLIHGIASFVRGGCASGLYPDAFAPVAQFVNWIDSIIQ

human P2X3 receptor = target: T2, human P2X3 receptor (Homo sapiens, UniProt P56373); test: inhibition of ATP-induced calcium influx; assay type: cell-based; conditions: agonist ATP at ~80% of maximal effect; read-out: 6
T2 construct: gene P2RX3; full-length receptor stably expressed in 1321 N1 astrocytoma cells; homotrimer
T2 sequence (P56373 1-397): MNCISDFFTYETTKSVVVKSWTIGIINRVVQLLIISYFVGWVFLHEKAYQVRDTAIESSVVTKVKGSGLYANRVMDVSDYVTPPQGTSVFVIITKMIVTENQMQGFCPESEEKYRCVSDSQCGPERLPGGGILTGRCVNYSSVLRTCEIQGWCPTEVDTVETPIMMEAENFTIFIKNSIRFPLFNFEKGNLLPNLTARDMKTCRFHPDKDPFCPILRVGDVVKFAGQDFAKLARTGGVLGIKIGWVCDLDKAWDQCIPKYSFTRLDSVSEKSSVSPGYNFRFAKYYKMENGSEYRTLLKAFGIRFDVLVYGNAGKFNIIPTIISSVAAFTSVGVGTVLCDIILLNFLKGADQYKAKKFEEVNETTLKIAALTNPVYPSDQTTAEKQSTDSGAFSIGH
From the text: inhibition of ATP-induced calcium influx on human P2X3 receptor

[2] = target: T3, human adenosine A3 receptor (A3AR) (Homo sapiens, UniProt P0DMS8); test: [3H]PSB-11 radioligand competition, CHO membranes; assay type: binding; conditions: 0.5 nM [3H]PSB-11, 50 mM Tris-HCl pH 7.4, 23 °C, 60 min; read-out: 6
T3 construct: gene ADORA3; membrane preparations of CHO cells expressing human A3AR
T3 sequence (P0DMS8 1-318): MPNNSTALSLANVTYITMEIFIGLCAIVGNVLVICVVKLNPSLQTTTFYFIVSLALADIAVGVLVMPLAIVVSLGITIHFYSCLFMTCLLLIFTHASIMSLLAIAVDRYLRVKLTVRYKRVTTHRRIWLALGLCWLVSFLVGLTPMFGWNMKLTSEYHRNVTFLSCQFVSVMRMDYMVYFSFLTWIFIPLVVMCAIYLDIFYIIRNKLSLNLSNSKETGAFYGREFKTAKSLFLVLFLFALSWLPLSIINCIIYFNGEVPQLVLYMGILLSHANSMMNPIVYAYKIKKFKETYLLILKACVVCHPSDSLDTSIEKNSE
From the text: [3H]PSB-11 radioligand competition, CHO membranes on human adenosine A3 receptor (A3AR)

1321N1 astrocytoma cells = test: cells; set-up: MTT viability assay, absorbance at 570 nm; conditions: Homo sapiens, 1321-N1, 72 h; read-out: Growth inhibition IC50 ± SEM
Description: MTT assays: The test compounds were investigated at human 1321 N1 astrocytoma cells using the 3‐(4,5‐dimethylthiazol‐2‐yl)‐2,5‐diphenyltetrazolium bromide (MTT) assay in order to assess their cytotoxic effects. Assays were performed as previously described by Baqi et al.30 In brief, cells were detached from the 175 cm^2 culture flasks in which they were grown and subsequently counted using a Neubauer haemocytometer. Then, they were resuspended in the growth medium. An aliquot of the cell suspension (180 μL) was added into each well of a 96‐well plate to obtain 1000 cells per well and incubated for 24 h at 37 °C, 5 % CO2, and 95 % humidity. The outer wells of the 96‐well plate were filled with 200 μL of phosphate‐buffered saline (PBS) to prevent evaporation of the fluid. After 24 h, stock solutions (10 mM) of the test compounds (archazolids) were prepared in DMSO and diluted with cell culture medium to give tenfold of the final concentrations. […] The spectrophotometric absorbance was subsequently measured at 570 nm using a FlexStation (3 multimode plate reader, molecular devices) with a filter of 690 nm. The data were analyzed using Microsoft Excel and GraphPad Prism 5. Results were evaluated by comparing the absorbance of the wells containing compound‐treated cells with the absorbance of wells containing 1 % DMSO without any drug (=100 % viability). […]

| Structure (SMILES) | Ki [1] [nM] | IC50 (human P2X3 receptor) [nM] | Ki [2] [nM] | IC50 (1321N1 astrocytoma cells) [nM] |
| --- | --- | --- | --- | --- |
| COC1C(C)=CCCCCOC(=O)CCCC(C)=CC(O)C(C)C=C(C)C=C(C)C=CC(O)C1C (stereo not shown) [compound 6, Analogue 6] | 13300 ± 1500 | 1190 ± 180 | 436 ± 111 | – |
| COC1C(C)=CCCCCOC(=O)CCCC(C)=CC(O)C(C)C=C(C)C=C(C)C=CC(O)C1C (stereo not shown) [compound 6] | – | – | – | 19.6 ± 4 |
